The results in this text go back to US9994570B2, “Bridged diazepane orexin receptor antagonists” (MERCK SHARP & DOHME CORP., priority 2014, dated 2018).

One test concerns the target T1, human orexin-2 receptor (Homo sapiens, UniProt O43614).
T1 construct: expressed in transfected cells; host or cells: CHO cells (grown under G418 selection)
T1 sequence (O43614 1-444): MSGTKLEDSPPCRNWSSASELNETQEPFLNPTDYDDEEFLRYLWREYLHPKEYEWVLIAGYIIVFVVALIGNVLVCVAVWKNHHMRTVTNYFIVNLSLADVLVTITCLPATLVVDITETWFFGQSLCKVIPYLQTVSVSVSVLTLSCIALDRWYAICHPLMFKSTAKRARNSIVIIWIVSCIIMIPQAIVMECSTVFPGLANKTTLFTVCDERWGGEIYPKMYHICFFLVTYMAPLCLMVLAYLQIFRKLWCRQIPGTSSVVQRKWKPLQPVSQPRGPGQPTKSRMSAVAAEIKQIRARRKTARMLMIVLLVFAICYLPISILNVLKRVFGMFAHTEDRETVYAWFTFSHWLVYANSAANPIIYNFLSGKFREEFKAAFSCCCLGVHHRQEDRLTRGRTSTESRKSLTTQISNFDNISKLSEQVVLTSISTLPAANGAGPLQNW
Put plainly: FLIPR Ca2+ flux assay, OX2R. The class given is cell-based. The settings on record: for IC50: CHO cells expressing the human orexin-2 receptor, agonist 70 pM Ala-6,12 orexin-A; for Fold Selective: OX1R FLIPR / OX2R FLIPR. On the procedure:
(§1) The utility of the compounds in accordance with the present invention as orexin receptor OX1R and/or OX2R antagonists may be readily determined without undue experimentation by methodology well known in the art, including the “FLIPR Ca^2+ Flux Assay” (Okumura et al., Biochem. Biophys. Res. Comm. 280:976-981, 2001). In a typical experiment the OX1 and OX2 receptor antagonistic activity of the compounds of the present invention was determined in accordance with the following experimental method. For intracellular calcium measurements, Chinese hamster ovary (CHO) cells expressing the rat orexin-1 receptor or the human orexin-2 receptor, are grown in Iscove's modified DMEM containing 2 mM L-glutamine, […], 1% hypoxanthine-thymidine supplement, 100 U/ml penicillin, 100 μg/ml streptomycin and 10% heat-inactivated fetal calf serum (FCS). The cells are seeded at 20,000 cells/well into Becton-Dickinson black 384-well clear bottom sterile plates coated with poly-D-lysine. All reagents were from GIBCO-Invitrogen Corp. The seeded plates are incubated overnight at 37° C. and 5% CO2. Ala-6,12 human orexin-A as the agonist is prepared as a 1 mM stock solution in 1% bovine serum albumin (BSA) and diluted in assay buffer (HBSS containing 20 mM HEPES, 0.1% BSA and 2.5 mM probenecid, pH7.4) for use in the assay at a final concentration of 70 pM. Test compounds are prepared as 10 mM stock solution in DMSO, then diluted in 384-well plates, first in DMSO, then assay buffer. On the day of the assay, cells are washed 3 times with 100 μl assay buffer and then incubated for 60 min (37° C., 5% CO2) in 60 μl assay buffer containing 1 μM Fluo-4AM ester, 0.02% pluronic acid, and 1% BSA. The dye loading solution is then aspirated and cells are washed 3 times with 100 μl assay buffer. 30 μl of that same buffer is left in each well. Within the Fluorescent Imaging Plate Reader (FLIPR, Molecular Devices), test compounds are added to the plate in a volume of 25 μl, incubated for 5 min and finally 25 μl of agonist is added. Fluorescence is measured for each well at 1 second intervals for 5 minutes and the height of each fluorescence peak is compared to the height of the fluorescence peak induced by 70 pM Ala-6,12 orexin-A with buffer in place of antagonist. For each antagonist, IC50 value (the concentration of compound needed to inhibit 50% of the agonist response) is determined. Alternatively, compound potency can be assessed by a radioligand binding assay (described in Bergman et. al. Bioorg. Med. Chem. Lett. 2008, 18, 1425-1430) in which the inhibition constant (Ki) is determined in membranes prepared from CHO cells expressing either the OX1 or OX2 receptor. The intrinsic orexin receptor antagonist activity of a compound which may be used in the present invention may be determined by these assays.

In a further test the target is T2, rat orexin-1 receptor (Rattus norvegicus, UniProt P56718).
T2 construct: expressed in transfected cells; host or cells: CHO cells (grown under G418 selection)
T2 sequence (P56718 1-416): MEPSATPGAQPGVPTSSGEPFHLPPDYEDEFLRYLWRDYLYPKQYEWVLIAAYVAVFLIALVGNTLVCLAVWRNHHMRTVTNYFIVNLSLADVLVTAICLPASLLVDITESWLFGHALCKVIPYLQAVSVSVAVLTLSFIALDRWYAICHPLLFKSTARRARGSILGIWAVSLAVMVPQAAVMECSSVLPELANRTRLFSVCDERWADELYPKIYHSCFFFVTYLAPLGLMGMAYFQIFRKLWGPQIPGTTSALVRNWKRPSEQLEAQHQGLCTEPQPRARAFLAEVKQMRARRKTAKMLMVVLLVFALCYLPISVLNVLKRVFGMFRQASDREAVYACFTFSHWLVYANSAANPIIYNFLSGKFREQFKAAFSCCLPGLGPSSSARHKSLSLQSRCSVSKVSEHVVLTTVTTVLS
Description: FLIPR Ca2+ flux assay, OX1R. Type of test: cell-based. The note with it: CHO cells expressing the rat orexin-1 receptor; agonist 70 pM Ala-6,12 orexin-A. On the procedure:
as §1

Turning to `Cc1cc(C)nc(N2CC3CC2CN(C(=O)c2ccccc2OC(F)F)C3)n1` (stereo not drawn) [Example 34, 3-{[2-(difluoromethoxy)phenyl]carbonyl}-6-(4,6-dimethylpyrimidin-2-yl)-3,6-diazabicyclo[3.2.1]octane], on human orexin-2 receptor, the IC50 worked out at 24 nM and the “Fold Selective” value is 112. Further, the IC50 at rat orexin-1 receptor turned out to be 2680 nM.

On to `Cc1cc(C)nc(N2CC3CC2CN(C(=O)c2nccnc2OCC(F)(F)C(F)F)C3)n1` (stereo not drawn) [Example 51, (6-(4,6-dimethylpyrimidin-2-yl)-3,6-diazabicyclo[3.2.1]octan-3-yl)(3-(2,2,3,3-tetrafluoropropoxy)pyrazin-2-yl)methanone], for which the IC50 at human orexin-2 receptor was found to be 24 nM; at rat orexin-1 receptor it was 2690 nM. Besides, at human orexin-2 receptor, the “Fold Selective” value is reported as 112.

`Cc1cc(C#N)nc(N2CC3CC2CN(C(=O)c2ccccc2OC(F)F)C3)n1` (stereo not drawn) [Example 2, 2-(3-(2-(difluoromethoxy)benzoyl)-3,6-diazabicyclo[3.2.1]-octan-6-yl)-6-methylpyrimidine-4-carbonitrile]: the IC50 on human orexin-2 receptor was 46 nM; at rat orexin-1 receptor, > 10000 nM. On human orexin-2 receptor, the “Fold Selective” value is >217.

With `Cc1cc(C)nc(N2CC3CC2CN(C(=O)c2ccccc2CC(F)(F)F)C3)n1` (stereo not drawn) [Example 25, 6-(4,6-dimethylpyrimidin-2-yl)-3-{[2-(2,2,2-trifluoroethyl)phenyl]carbonyl}-3,6-diazabicyclo[3.2.1]octane], at human orexin-2 receptor, the IC50 worked out at 17 nM and the “Fold Selective” value is 119. This compound also displayed a 50% inhibitory concentration (IC50) on rat orexin-1 receptor of 2020 nM.

As for `Cc1cc(C)nc(N2CC3CC2CN(C(=O)c2cccnc2OCC(C)C)C3)n1` (stereo not drawn) [Example 40, 6-(4,6-dimethyl-pyrimidin-2-yl)-3-{[2-(2-methylpropoxy)pyridin-3-yl]carbonyl}-3,6-diazabicyclo[3.2.1]octane], on human orexin-2 receptor, the concentration for half-maximal inhibition (IC50) came to 16 nM and the “Fold Selective” value turned out to be 41. Also, the 50% inhibitory concentration (IC50) at rat orexin-1 receptor stood at 648 nM.

As to `COc1ccc(C(=O)N2CC3CC(C2)N(c2nc(C)cc(C)n2)C3)c(C2CC2)n1` (stereo not drawn) [Example 13, 3-[(2-cyclopropyl-6-methoxypyridin-3-yl)carbonyl]-6-(4,6-dimethylpyrimidin-2-yl)-3,6-diazabicyclo[3.2.1]octane], on human orexin-2 receptor, the IC50 is 41 nM and the “Fold Selective” value is on record as 87. On rat orexin-1 receptor, this compound yielded an IC50 of 3550 nM.

In the case of `Cc1cc(C)nc(N2CC3CC2CN(C(=O)c2nccnc2OC(C)C)C3)n1` (stereo not drawn) [Example 52, 6-(4,6-dimethylpyrimidin-2-yl)-3-{[3-(1-methylethoxy)pyrazin-2-yl]carbonyl}-3,6-diazabicyclo[3.2.1]octane], the half-inhibitory concentration (IC50) at human orexin-2 receptor is 60 nM; on rat orexin-1 receptor, > 10000 nM. Further, the “Fold Selective” value at human orexin-2 receptor is >167.

As to `Cc1cc(C)nc(N2CC3CC2CN(C(=O)c2ccccc2OC(C)C)C3)n1` (stereo not drawn) [Example 16, 6-(4,6-dimethylpyrimidin-2-yl)-3-{[2-(1-methylethoxy)-phenyl]carbonyl}-3,6-diazabicyclo[3.2.1]octane], on human orexin-2 receptor, the concentration for half-maximal inhibition (IC50) was 16 nM and the “Fold Selective” value is listed as 61. The compound also had a half-maximal inhibitory concentration (IC50) at rat orexin-1 receptor of 982 nM.

Turning to `COCc1ccccc1C(=O)N1CC2CC(C1)N(c1nc(C)cc(C)n1)C2` (stereo not drawn) [Example 10, (6-(4,6-dimethylpyrimidin-2-yl)-3,6-diazabicyclo[3.2.1]octan-3-yl)(2-(methoxymethyl)phenyl)methanone], at human orexin-2 receptor, the 50% inhibitory concentration (IC50) turned out to be 46 nM and the “Fold Selective” value is listed as 74. This compound registered an IC50 at rat orexin-1 receptor of 3410 nM.

For the compound `Cc1cc(C)nc(N2CC3CC2CN(C(=O)c2cccnc2OC(C)C)C3)n1` (stereo not drawn) [Example 21, 6-(4,6-dimethylpyrimidin-2-yl)-3-{[2-(1-methylethoxy)pyridin-3-yl]carbonyl}-3,6-diazabicyclo[3.2.1]octane], on human orexin-2 receptor, the IC50 is 18 nM and the “Fold Selective” value was found to be 148. Further, the IC50 on rat orexin-1 receptor was determined as 2670 nM.

Turning to `Cc1cc(C)nc(N2CC3CC2CN(C(=O)c2ccccc2OC(F)(F)F)C3)n1` (stereo not drawn) [Example 15, 6-(4,6-dimethylpyrimidin-2-yl)-3-{[2-(trifluoromethoxy)-phenyl]carbonyl}-3,6-diazabicyclo[3.2.1]octane], the half-inhibitory concentration (IC50) at human orexin-2 receptor came out at 30 nM; at rat orexin-1 receptor it was 1530 nM. In addition, at human orexin-2 receptor, the “Fold Selective” value was 51.

With `Cc1cc(C#N)nc(N2CC3CC2CN(C(=O)c2cccnc2C2CC2)C3)n1` (stereo not drawn) [Example 5, 2-(3-(2-cyclopropylnicotinoyl)-3,6-diazabicyclo[3.2.1]octan-6-yl)-6-methylpyrimidine-4-carbonitrile], at human orexin-2 receptor, the 50% inhibitory concentration (IC50) stood at 81 nM and the “Fold Selective” value is reported as >123. For the same compound, the concentration for half-maximal inhibition (IC50) at rat orexin-1 receptor is > 10000 nM.

Consider `Cc1cc(C)nc(N2CC3CC2CN(C(=O)c2cccnc2C2CC2)C3)n1` (stereo not drawn) [Example 35, 3-[(2-cyclopropylpyridin-3-yl)carbonyl]-6-(4,6-dimethylpyrimidin-2-yl)-3,6-diazabicyclo[3.2.1]octane], for which, on human orexin-2 receptor, the IC50 was determined as 47 nM and the “Fold Selective” value is on record as >213. For the same compound, the IC50 at rat orexin-1 receptor is > 10000 nM.

Turning to `Cc1cc(C)nc(N2CC3CC2CN(C(=O)c2cc(F)ccc2C2CC2)C3)n1` (stereo not drawn) [Example 12, 3-[(2-cyclopropyl-5-fluorophenyl)carbonyl]-6-(4,6-dimethylpyrimidin-2-yl)-3,6-diazabicyclo[3.2.1]octane], the concentration for half-maximal inhibition (IC50) at human orexin-2 receptor was determined as 22 nM; on rat orexin-1 receptor, 1040 nM. Further, on human orexin-2 receptor, the “Fold Selective” value worked out at 47.

On to `Cc1cc(C#N)nc(N2CC3CC2CN(C(=O)c2ccccc2CC(F)(F)F)C3)n1` (stereo not drawn) [Example 1, 6-methyl-2-(3-(2-(2,2,2-trifluoroethyl)benzoyl)-3,6-diazabicyclo[3.2.1]octan-6-yl)pyrimidine-4-carbonitrile], for which, on human orexin-2 receptor, the concentration for half-maximal inhibition (IC50) was 23 nM and the “Fold Selective” value was determined as 81. This compound also came in with an IC50 on rat orexin-1 receptor of 1870 nM.

In the case of `Cc1cc(C)nc(N2CC3CC2CN(C(=O)c2cccnc2OCC2CCC2)C3)n1` (stereo not drawn) [Example 42, 3-{[2-(cyclobutylmethoxy)pyridin-3-yl]carbonyl}-6-(4,6-dimethylpyrimidin-2-yl)-3,6-diazabicyclo[3.2.1]octane], on human orexin-2 receptor, the concentration for half-maximal inhibition (IC50) worked out at 15 nM and the “Fold Selective” value turned out to be 42. On rat orexin-1 receptor, this compound showed an IC50 of 628 nM.

Consider `CSc1ccccc1C(=O)N1CC2CC(C1)N(c1nc(C)cc(C)n1)C2` (stereo not drawn) [Example 17, 6-(4,6-dimethylpyrimidin-2-yl)-3-{[2-(methylsulfanyl)-phenyl]carbonyl}-3,6-diazabicyclo[3.2.1]octane], for which the half-maximal inhibitory concentration (IC50) stood at 27 nM on human orexin-2 receptor and 2470 nM on rat orexin-1 receptor. Besides, the “Fold Selective” value at human orexin-2 receptor turned out to be 92.

Turning to `Cc1cc(C)nc(N2CC3CC2CN(C(=O)c2ccccc2OCC(F)F)C3)n1` (stereo not drawn) [Example 37, 3-{[2-(2,2-difluoroethoxy)-phenyl]carbonyl}-6-(4,6-dimethylpyrimidin-2-yl)-3,6-diazabicyclo[3.2.1]octane], on human orexin-2 receptor, the IC50 was determined as 14 nM and the “Fold Selective” value is 61. For the same compound, the IC50 at rat orexin-1 receptor turned out to be 851 nM.
